The record followed here is PubChem BioAssay (NCI).

Some test systems named below: HOP-92 NSCLC; SN12C renal; M14 melanoma; NCI-H522 lung; NCI-H23 lung; RPMI-8226 leukemia; SNB-19 CNS; 786-0 renal; MOLT-4 leukemia; CAKI-1 renal.
Assay in all cases: NCI-60 cell line screen, 48 h

Structures are written as SMILES.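 Cultured in 96-well plates, cells were exposed to test compound for 48 hours across five concentrations. The concentration for 50% growth inhibition is given as GI50. Definition used: TGI = concentration required for complete inhibition of growth.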

As to `O=c1[nH]c(=O)n(C2CC(O)C(O)C(CO)O2)cc1F` (centres undefined), the TGI in the experiment on HOP-92 NSCLC, with SN12C renal, in the experiment with M14 melanoma, in the experiment with NCI-H522 lung, in the experiment on NCI-H23 lung and in the experiment on RPMI-8226 leukemia was more than 100 µM throughout. Further, the TGI in the experiment with SNB-19 CNS, with 786-0 renal and in the experiment on MOLT-4 leukemia was more than 100 µM each time.
As to `CC(C)c1cc(C(C)C)c(Cl)c(Cl)c1O` (tested in a mixture with another compound), the TGI in the experiment on HOP-92 NSCLC was 27.9 µM; in the experiment on SN12C renal it was 54.4 µM; with M14 melanoma, more than 100 µM; with NCI-H522 lung it was 35.8 µM; with NCI-H23 lung, more than 100 µM; in the experiment on RPMI-8226 leukemia, more than 100 µM. Also, the TGI with CAKI-1 renal is 47 µM; with SNB-19 CNS, 42.8 µM; with 786-0 renal it was more than 100 µM.
Turning to `CN1CCOCCOCCOc2ccccc2NC(=O)c2nc(cnc2N)-c2ccc(cc2)S1(=O)=O`, the GI50 with SN12C renal is more than 100 µM; in the experiment with NCI-H522 lung it was 5.55 µM; with SNB-19 CNS, 16.6 µM; with 786-0 renal it was 0.0398 µM. Further, the TGI with SN12C renal is more than 100 µM; in the experiment on NCI-H522 lung, more than 100 µM; in the experiment on SNB-19 CNS it was more than 100 µM; with 786-0 renal it was 23.3 µM.
Consider `CCN(CC)C(=O)CCCCCn1c2ccccc2c2c3c(c4c5ccccc5[nH]c4c21)C(=O)N(O)C3=O`, for which the GI50 in the experiment with HOP-92 NSCLC was 2.73 µM; in the experiment with SN12C renal, 4.03 µM; with M14 melanoma, 4.49 µM; with NCI-H522 lung, 1.41 µM; with NCI-H23 lung, 3.33 µM; with RPMI-8226 leukemia, 3.06 µM. Further, the GI50 with SNB-19 CNS was 4.7 µM; with 786-0 renal, 2.12 µM; in the experiment on MOLT-4 leukemia, 2.05 µM. The TGI with HOP-92 NSCLC was 7.68 µM; with SN12C renal it was more than 100 µM; in the experiment with M14 melanoma, 39.3 µM; in the experiment on NCI-H522 lung, 3.13 µM; in the experiment on NCI-H23 lung, 47.3 µM; in the experiment on RPMI-8226 leukemia, 11.3 µM. For the same molecule, the TGI in the experiment on SNB-19 CNS is more than 100 µM; in the experiment with 786-0 renal it was 5.04 µM; with MOLT-4 leukemia, 6.13 µM.
On to `CCOC(=O)n1c2ccccc2c(=O)n1CCO`, for which the TGI in the experiment on SN12C renal, in the experiment on M14 melanoma, with NCI-H522 lung, in the experiment on NCI-H23 lung, in the experiment on CAKI-1 renal and with SNB-19 CNS was more than 100 µM in each case. In addition, the TGI in the experiment on 786-0 renal and with MOLT-4 leukemia was more than 100 µM throughout.
Regarding `O=C(/C=C/c1cccc(Oc2ccc(Cl)cc2)c1)c1ccccc1`, the GI50 was 21.8 µM with HOP-92 NSCLC; 28.4 µM in the experiment on SN12C renal; 53.1 µM with M14 melanoma; 67.1 µM in the experiment with NCI-H522 lung; 80.7 µM in the experiment on NCI-H23 lung; 25.3 µM in the experiment on RPMI-8226 leukemia. Also, the GI50 in the experiment on SNB-19 CNS was 35.3 µM; in the experiment on 786-0 renal, 19.9 µM; in the experiment on MOLT-4 leukemia it was 30.8 µM. The TGI worked out at 50.1 µM in the experiment with HOP-92 NSCLC; 78.4 µM in the experiment with SN12C renal; 241 µM in the experiment on M14 melanoma; 246 µM in the experiment with NCI-H522 lung; 266 µM in the experiment with NCI-H23 lung; 61 µM in the experiment with RPMI-8226 leukemia. In addition, the TGI in the experiment with SNB-19 CNS worked out at 111 µM; in the experiment on 786-0 renal it was 43.6 µM.
Regarding `NC(=O)C(=O)Cc1nc2ccccc2s1`, the TGI with HOP-92 NSCLC, with SN12C renal, with M14 melanoma, in the experiment on NCI-H522 lung, in the experiment on NCI-H23 lung and with RPMI-8226 leukemia was more than 100 µM throughout. In addition, the TGI with SNB-19 CNS, in the experiment with 786-0 renal and with MOLT-4 leukemia was more than 100 µM in each case.
For `O=C(Nc1ccc(Br)cc1)Nc1cccc(Br)c1`, the GI50 with SN12C renal is 71.8 µM; in the experiment on M14 melanoma it was 9.96 µM; in the experiment on CAKI-1 renal it was more than 100 µM; in the experiment on SNB-19 CNS it was 11.1 µM; in the experiment with 786-0 renal, 34.5 µM; in the experiment on MOLT-4 leukemia it was 5.38 µM. The TGI in the experiment with SN12C renal, with M14 melanoma, with CAKI-1 renal, in the experiment with SNB-19 CNS, with 786-0 renal and in the experiment with MOLT-4 leukemia was more than 100 µM throughout.
With `CCN(CC)CCCNc1c2ccc(Cl)cc2nc2ccc(OC)cc12`, the GI50 with HOP-92 NSCLC was 1.41 µM; in the experiment with SN12C renal, 0.0575 µM; with RPMI-8226 leukemia, 0.042 µM; in the experiment with SNB-19 CNS, 0.0587 µM; in the experiment on 786-0 renal it was 0.0449 µM; in the experiment with MOLT-4 leukemia, 0.0338 µM. Moreover, the TGI in the experiment on HOP-92 NSCLC turned out to be 3.62 µM; in the experiment with SN12C renal it was 3.69 µM; with RPMI-8226 leukemia it was 2.83 µM; in the experiment on SNB-19 CNS, 4.57 µM; with 786-0 renal it was 2.15 µM; with MOLT-4 leukemia it was 2.91 µM.
`COC(=O)c1ccc2c(c1)C(=O)c1c-2n(CCCCl)c(=O)c2cc(OC)c(OC)cc12`: the GI50 was more than 100 µM with SN12C renal; more than 100 µM in the experiment with M14 melanoma; more than 100 µM in the experiment with NCI-H522 lung; more than 100 µM in the experiment with NCI-H23 lung; 75.2 µM in the experiment with RPMI-8226 leukemia; more than 100 µM in the experiment on CAKI-1 renal. The GI50 with SNB-19 CNS and in the experiment with 786-0 renal was more than 100 µM throughout. Further, the TGI in the experiment with SN12C renal, with M14 melanoma, in the experiment with NCI-H522 lung, in the experiment on NCI-H23 lung, in the experiment on RPMI-8226 leukemia and with CAKI-1 renal was more than 100 µM in each case. In addition, the TGI with SNB-19 CNS and in the experiment with 786-0 renal was more than 100 µM throughout.
`CC(=O)c1c(O)c2c([nH]c1=O)CCCC2`: the TGI with HOP-92 NSCLC was more than 100 µM; with SN12C renal it was 45.1 µM; in the experiment on M14 melanoma it was more than 100 µM; with NCI-H23 lung it was more than 100 µM; with CAKI-1 renal, more than 100 µM; with SNB-19 CNS, 33.9 µM. Also, the TGI in the experiment on 786-0 renal and in the experiment on MOLT-4 leukemia was more than 100 µM in each case.
As for `O=C(CCC(=O)C1Cc2ccccc2C1=O)Nc1cccc(C(F)(F)F)c1` (centres undefined), the TGI in the experiment with HOP-92 NSCLC, in the experiment on SN12C renal, in the experiment on M14 melanoma, in the experiment on NCI-H23 lung, in the experiment on CAKI-1 renal and with SNB-19 CNS was more than 100 µM throughout. The TGI in the experiment with 786-0 renal and in the experiment on MOLT-4 leukemia was more than 100 µM each time.
